Data as given in US20230339970A1, “CASEIN KINASE 1 DELTA MODULATORS” (priority 2020, published 2023).

What was measured:
[1] = molecular target: T1, human recombinant GST cleaved CSNK1D (Homo sapiens, UniProt P48730); test: Purified Enzyme Assay (ADP-Glo CSNK1D Kinase Assay); assay type: biochemical; conditions: 2 nM CSNK1D; peptide substrate 150 μM; ATP 20 μM; 45 minutes at room temperature
T1 construct: GST (cleaved yes); purchased University of Dundee clone DU 19064
Summary of the method: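 GST-cleaved human recombinant CSNK1D phosphorylates peptide PLSRTL-pS-VASLPGL with ATP; compounds added in dose-response, 45 min at room temperature. ADP formed measured by ADP-Glo luminescence and converted to percent activity.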

human CSNK1D = molecular target: T2, human CSNK1D (Homo sapiens, UniProt P48730); test: Whole Cell nBRET CSNK1D Binding Assay; conditions: living CHO cells stably expressing human CSNK1D tagged with nanoluciferase; NanoBret tracer 130 nM; 2 hours at 37 C
T2 construct: expressed in transfected cells
T2 sequence (P48730 whole entry): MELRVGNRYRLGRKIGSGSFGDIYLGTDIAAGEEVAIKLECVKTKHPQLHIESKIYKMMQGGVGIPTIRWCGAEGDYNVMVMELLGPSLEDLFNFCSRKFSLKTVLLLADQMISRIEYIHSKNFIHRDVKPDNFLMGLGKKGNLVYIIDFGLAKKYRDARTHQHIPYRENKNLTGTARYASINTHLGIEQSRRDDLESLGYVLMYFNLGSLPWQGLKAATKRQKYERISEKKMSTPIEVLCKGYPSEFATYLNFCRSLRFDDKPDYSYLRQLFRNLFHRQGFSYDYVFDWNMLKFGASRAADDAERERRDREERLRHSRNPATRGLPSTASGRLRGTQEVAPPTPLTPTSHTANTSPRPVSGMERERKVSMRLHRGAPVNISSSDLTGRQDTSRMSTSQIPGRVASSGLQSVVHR

T1 sequence (P48730 whole entry): as above

| SMILES | IC50 [1] [nM] | IC50 (human CSNK1D) [nM] |
| --- | --- | --- |
| COC[C@]1(F)CCc2c(-c3cc(C)nc4[nH]ncc34)c(-c3ccc(F)cn3)nn2C1 (single isomer, unassigned) [Example 53, (*S)-4-(6-Fluoro-2-(5-fluoropyridin-2-yl)-6-(methoxymethyl)-4,5,6,7-tetrahydropyrazolo[1,5-a]pyridin-3-yl)-6-methyl-1H-pyrazolo[3,4-b]pyridine] | 4 | 31 |
| Cc1cc(-c2c(-c3ccc(F)cn3)nn3c2OC(C)(C)C3)c2cn[nH]c2n1 [Example 368, 6-(5-Fluoro-2-pyridyl)-2,2-dimethyl-7-(6-methyl-1H-pyrazolo[3,4-b]pyridin-4-yl)-3H-pyrazolo[5,1-b]oxazole] | 7 | 55 |
| Cc1nc2[nH]nc(Cl)c2c(-c2c(-c3ccc(F)cn3)nn3c2CCC3)c1F [Example 224, 3-Chloro-5-fluoro-4-(2-(5-fluoropyridin-2-yl)-5,6-dihydro-4H-pyrrolo[1,2-b]pyrazol-3-yl)-6-methyl-1H-pyrazolo[3,4-b]pyridine] | 4 | 5 |
| Cc1nc2[nH]ncc2c(-c2c(-c3ccc(F)cn3)nn3c2CC2(C3)CC2(F)F)c1F (single isomer, unassigned) [Example 264, (*S)-1′.1′-Difluoro-3-(5-fluoro-6-methyl-1H-pyrazolo[3,4-b]pyridin-4-yl)-2-(5-fluoro-2-pyridyl)spiro[4,6-dihydropyrrolo[1,2-b]pyrazole-5,2′-cyclopropane]] | 4 | 20 |
| C[C@H]1C[C@H](C)n2nc(-c3ccc(F)cn3)c(-c3ccnc4[nH]ncc34)c2O1 (single isomer, unassigned) [Example 205, (5*S,7*S)-2-(5-Fluoropyridin-2-yl)-5,7-dimethyl-3-(1H-pyrazolo[3,4-b]pyridin-4-yl)-6,7-dihydro-5H-pyrazolo[5,1-b][1,3]oxazine] | 5 | 171 |

Now from value to compound:

| IC50 [1] [nM] | IC50 (human CSNK1D) [nM] | SMILES |
| --- | --- | --- |
| 2 | 19 | Cc1cc(-c2c(-c3ccc(F)cc3)nn3c2CC[C@H]3C)c2cn[nH]c2n1 [Example 18, 4-[(6R)-2-(4-Fluorophenyl)-6-methyl-5,6-dihydro-4H-pyrrolo[1,2-b]pyrazol-3-yl]-6-methyl-1H-pyrazolo[3,4-b]pyridine] |
| 3 | 15 | Cc1cc(-c2c(-c3ccc(F)cn3)nn3c2CO[C@](C)(C(F)(F)F)C3)c2cn[nH]c2n1 (single isomer, unassigned) [Example 179, (*S)-2-(5-Fluoropyridin-2-yl)-6-methyl-3-(6-methyl-1H-pyrazolo[3,4-b]pyridin-4-yl)-6-(trifluoromethyl)-6,7-dihydro-4H-pyrazolo[5,1-c][1,4]oxazine] |
| 6870 | > 10000 | Cn1cc2c(-c3c(-c4ccc(F)cn4)nn4c3COC(C)(C)C4)ccnc2n1 [Example 158, 2-(5-Fluoro-2-pyridyl)-6,6-dimethyl-3-(2-methylpyrazolo[3,4-b]pyridin-4-yl)-4,7-dihydropyrazolo[5,1-c][1,4]oxazine] |
| 10 | 48 | Fc1ccc(-c2nn3c(c2-c2ccn4nccc4c2)C[C@H](F)C3)cc1 [Example 226, 5-[(5S)-5-Fluoro-2-(4-fluorophenyl)-5,6-dihydro-4H-pyrrolo[1,2-b]pyrazol-3-yl]pyrazolo[1,5-a]pyridine] |
| 1 | 11 | Cc1cc(-c2c(-c3ccc(F)cc3)nn3c2OC[C@H](C)C3)c2cn[nH]c2n1 (single isomer, unassigned) [Example 194, (*R)-2-(4-Fluorophenyl)-6-methyl-3-(6-methyl-1H-pyrazolo[3,4-b]pyridin-4-yl)-6,7-dihydro-5H-pyrazolo[5,1-b][1,3]oxazine] |
| 2 | 24 | Fc1ccc(-c2nn3c(c2-c2ccnc4[nH]ncc24)CO[C@@H](C(F)(F)F)C3)cc1 [Example 101, (R)-2-(4-Fluorophenyl)-3-(1H-pyrazolo[3,4-b]pyridin-4-yl)-6-(trifluoromethyl)-6,7-dihydro-4H-pyrazolo[5,1-c][1,4]oxazine] |
